Test results taken from patent US20260130924A1, “COMPOSITIONS AND METHODS OF TREATING SUBJECTS WITH BRCA1 MUTATION OR DEFICIENCY” (BOARD OF REGENTS, THE UNIVERSITY OF TEXAS SYSTEM, priority 2022, published 2026).
Entries after “also recorded” stand apart in the source; their conditions may differ.

Columns and labels:
Format in all cases: cell-based, human
NRF2 and GPX4 = NRF2 and GPX4 protein levels (western blotting); details: for GPX4 levels: BRCA1-mutant SUM149 cells
Method: Cell pellets were lysed using immunoprecipitation lysis buffer (Fisher Scientific) or NP-40 buffer containing complete mini protease inhibitors (Roche). Protein concentrations were detected by a Bicinchoninic Acid Protein Assay (Thermo Scientific) using a FLUOstar Omega microplate reader (BMG Labtech). Immunoprecipitation and Western blot analysis were conducted as previously described. The primary antibodies and concentrations used in the current study included the followed: GPX4 (1:1,000, MAB5457, R&D systems), BRCA1 (1:1,000, 14823, Cell Signaling), BRCA2 (1:1,000, MAB2476-SP, R&D Systems), DHODH (1:1,000, 14877-1-AP, Proteintech), ACSL4 (1:1,000, sc-271800, Santa Cruz), FSP1 (1:1,000, 20886-1-AP, Proteintech), VDAC1 (1:1,000, 66345-1-Ig, Proteintech), VDAC2 (1:1,000, 66388-1-Ig, Proteintech), VDAC3 (1:1,000, 55260-1-AP, Proteintech), SLC7A11 (1:1,000, 12691, Cell Signaling), NCOA4 (1:1,000, 66849, Cell Signaling), vinculin (1:10000; […], Sigma), β-actin (1:1,000, 3700, Cell Signaling), LC3B (1:5000, 3868, Cell Signaling), 53BP1 (1:5000, NB100-304, Novus Biologicals), E-Cadherin (1:1000, 3195, Cell Signaling), and tubulin (1:5000, 2144, Cell Signaling).

SUM149 and HS578T cells = test: ROS-related cell death in SUM149 and HS578T cells (cell viability)
Method: (§1) Viable cells were measured using Cell Counting Kit-8 (CCK-8, Dojindo) as previously described. Briefly, cells were seeded onto 96-well plates and subsequently treated with indicated agents. Next, cells were exposed to 10 μL of CCK-8 reagent (100 μL of medium per well) for 1 hour at 37° C. with 5% CO2 in an incubator. The absorbance at a wavelength of 450 nm was determined using a FLUOstar Omega microplate reader (BMG Labtech). The combination effects were assessed with Bliss independence model and the score is defined as “observed combination effect” minus “expected additive effect”.

[1] = system: BRCA1 sgRNA-infected (BRCA1 sg) cells; test: FIN-induced lipid peroxidation and ferroptosis in BRCA1 sgRNA-infected cells; details: for effect of BRCA1 deficiency on the lipid peroxidation and ferroptosis induced by the compound: BRCA1 sg cells versus control; for effect on RSL3-induced cell death in BRCA1 sg cells: co-treatment with RSL3
Method: (§2) Knockout of BRCA1, BRCA2, VDAC3, GPX4, ECAD, 53BP1, and NCOA4 in human cell lines was performed using single guide RNAs (sgRNAs) and the CRISPR-Cas9 expression system as previously described. Briefly, sgRNAs were cloned into the lentiviral LentiGuide vector. The sequences of sgRNAs used in the current study are listed in SEQ ID NOs 1-23. LentiGuide clones were transfected into HEK293T cells with a psPAX2 packaging plasmid and pMD2.G-expressing plasmid. Cells were infected with lentivirus with 0.8 μg/mL polybrene and selected with puromycin (1 μg/mL, InvivoGen) or blasticidin (2 μg/mL, InvivoGen), followed by Western blot analysis to confirm target gene deletion. To maintain GPX4 knockout cells, we added 1 μM ferrostatin-1 into the media.
as §1
(§3) Cell death was measured by propidium iodide (Roche) staining using a flow cytometer, as previously described. Briefly, cells were seeded onto 6- or 12-well plates and subsequently treated with indicated agents. For GPX4 knockout cells, ferrostatin-1 was removed from the culture media. Next, cells were collected (including floating dead cells) and stained with 5 μg/mL propidium iodide. The percentage of the propidium iodide-positive dead cells was determined using the flow cytometer BD Accuri C6 (BD Biosciences) or Attune NXT Flow Cytometer (ThermoFisher) with an FL2 detector. A minimum of 5,000 single cells were analyzed per well.
(§4) As previously described C11-BODIPY 581/591 (Invitrogen) was used for lipid peroxidation, MitoPerOx (Abcam) for mitochondrial lipid peroxidation, and CM-H2DCFDA (ThermoFisher) for ROS measurements. Briefly, cells were seeded on 6- or 12-well plates and subsequently treated with indicated agents. After staining with 2.5 μM C11-BODIPY 581/591, 2.5 μM MitoPerOx, or 4 μM CM-H2DCFDA for 20 minutes, cells were analyzed using the flow cytometer BD Accuri C6 (BD Biosciences) or Attune NxT Flow Cytometer (ThermoFisher) with a 488-nm laser on an FL1 detector. A minimum of 5,000 single cells were analyzed per well.

VDAC3-KO cells = test: FIN-induced ferroptosis in VDAC3-KO cells; details: VDAC3 sg cells versus control
Method: as §2
Viable cells were measured using Cell Counting Kit-8 (CCK-8, Dojindo) as previously described. Briefly, cells were seeded onto 96-well plates and subsequently treated with indicated agents. […] The absorbance at a wavelength of 450 nm was determined using a FLUOstar Omega microplate reader (BMG Labtech). The combination effects were assessed with Bliss independence model and the score is defined as “observed combination effect” minus “expected additive effect”.
Cell death was measured by propidium iodide (Roche) staining using a flow cytometer, as previously described. […] The percentage of the propidium iodide-positive dead cells was determined using the flow cytometer BD Accuri C6 (BD Biosciences) or Attune NXT Flow Cytometer (ThermoFisher) with an FL2 detector. A minimum of 5,000 single cells were analyzed per well.
as §4, with “Briefly, cells were seeded on 6- or 12-well plates and subsequently treated with indicated agents.” left out

[2] = system: BRCA1-mutant cancer cells (SUM149, HCC1937); test: PARPi+GPX4i combination-induced lipid peroxidation and cell death; details: for effect on cell death induced by PARP inhibitor+GPX4 inhibitor combination: BRCA1-mutant cells
Method: as §3, §4

NCOA4 = NCOA4 expression after PARPi treatment (western blotting); details: SUM149 and HCC1937 cells
Method: Cell pellets were lysed using immunoprecipitation lysis buffer (Fisher Scientific) or NP-40 buffer containing complete mini protease inhibitors (Roche). Protein concentrations were detected by a Bicinchoninic Acid Protein Assay (Thermo Scientific) using a FLUOstar Omega microplate reader (BMG Labtech). Immunoprecipitation and Western blot analysis were conducted as previously described. The primary antibodies and concentrations used in the current study included the followed: GPX4 (1:1,000, MAB5457, R&D systems), BRCA1 (1:1,000, 14823, Cell Signaling), BRCA2 (1:1,000, MAB2476-SP, R&D Systems), DHODH (1:1,000, 14877-1-AP, Proteintech), ACSL4 (1:1,000, sc-271800, Santa Cruz), FSP1 (1:1,000, 20886-1-AP, Proteintech), VDAC1 (1:1,000, 66345-1-Ig, Proteintech), VDAC2 (1:1,000, 66388-1-Ig, Proteintech), VDAC3 (1:1,000, 55260-1-AP, Proteintech), SLC7A11 (1:1,000, 12691, Cell Signaling), NCOA4 (1:1,000, 66849, Cell Signaling), vinculin (1:10000; V4505, Sigma), β-actin (1:1,000, 3700, Cell Signaling), LC3B (1:5000, 3868, Cell Signaling), 53BP1 (1:5000, NB100-304, Novus Biologicals), E-Cadherin (1:1000, 3195, Cell Signaling), and tubulin (1:5000, 2144, Cell Signaling).

[3] = system: BRCA2 sgRNA infected HT1080 cells; test: FIN sensitivity of BRCA2 sgRNA-infected HT1080 cells; details: BRCA2 sg HT1080 versus control
Method: as §2, §1

[4] = system: WT, BRCA1- or VDAC3-deficient cells; test: Rescue of Erastin-induced ferroptosis by antioxidants (cell viability); details: for effect on Erastin-induced ferroptosis: wild-type (WT), BRCA1- or VDAC3-deficient cells
Method: as §1

[5] = BRCA1 sgRNA infected SKOV3 cells

Molecule: C[S+]([O-])CCCCN=C=S (centres unmarked) [sulforaphane]
- GPX4 levels (NRF2 and GPX4): increased GPX4 levels

Molecule: CC(C)(C)OO [TBH, tert-butyl hydroperoxide]
- cell death in BRCA1-deficient versus BRCA1-proficient cells (SUM149 and HS578T cells; SUM149 or BRCA1 sg HS578T cells compared with HS578T cells): induced more cell death

Molecule: O=C(O)c1cc(/N=N/c2ccc(S(=O)(=O)Nc3ccccn3)cc2)ccc1O [sulfasalazine]
- effect of BRCA1 deficiency on the lipid peroxidation and ferroptosis induced by the compound [1]: did not affect
- effect of VDAC3 deletion on the lipid peroxidation, ferroptosis or sensitivity induced by the compound (VDAC3-KO cells): did not affect

Molecule: CN1C(=O)NC(Cc2c[nH]c3c(Cl)cccc23)C1=O (centres unmarked) [Nec-1s]
- effect on cell death induced by PARP inhibitor+GPX4 inhibitor combination [2]: not

Molecule: CC(=O)N[C@@H](CS)C(=O)O [NAC, N-acetyl-1-cysteine]
- effect on PARP inhibitor-induced NRF2 and GPX4 induction (NRF2 and GPX4; BRCA1-WT HS578T cells): abolished
- effect on PARP inhibitor-induced cell killing (SUM149 and HS578T cells; BRCA1-deficient SUM149 cells): partially restored; also recorded: suppressed

Molecule: NC(=O)c1cccc2cn(-c3ccc([C@@H]4CCCNC4)cc3)nc12 [niraparib]
- NCOA4 expression (NCOA4): significantly induced

Molecule: CC(C)Oc1ccc(C(=O)Cn2ccnc2)cc1-n1c(CN2CCN(C(=O)COc3ccc(Cl)cc3)CC2)nc2ccccc2c1=O [IKE, imidazole ketone erastin]
- effect of BRCA1 deficiency on the lipid peroxidation and ferroptosis induced by the compound [1]: remarkably repressed
- effect of VDAC3 deletion on the lipid peroxidation, ferroptosis or sensitivity induced by the compound (VDAC3-KO cells): largely abolished
- effect of BRCA2 depletion on cellular sensitivity to the compound [3]: did not affect

Molecule: CCOC(=O)c1ccc(NC2CCCCC2)c(N)c1 [ferrostatin-1]
- effect on cell death induced by PARP inhibitor+GPX4 inhibitor combination [2]: largely abolished
- effect on RSL3-induced cell death in BRCA1 sg cells [1]: abolished
- effect on Erastin-induced ferroptosis [4]: completely suppressed

Molecule: CC1(C)CC(NC(=O)C[P+](c2ccccc2)(c2ccccc2)c2ccccc2)CC(C)(C)N1[O] [MitoTEMPO]
- effect on cell viability of Erastin-treated cells ([4]; BRCA1- or VDAC3-deficient counterparts): did not provide a protective effect
- effect on cell viability of Erastin-treated cells ([4]; WT cells): largely restored cell viability

Molecule: CC1(C)CCCC(C)(C)N1[O] [TEMPO]
- effect on Erastin-induced ferroptosis [4]: completely suppressed

Molecule: Z-VAD
- effect on cell death induced by PARP inhibitor+GPX4 inhibitor combination [2]: not
- effect on RSL3-induced cell death in BRCA1 sg cells [1]: not

Molecule: CC(C)(C)c1cc(O)ccc1O [tert-butylhydroquinone]
- GPX4 levels (NRF2 and GPX4): increased GPX4 levels
- NRF2 and GPX4 levels (NRF2 and GPX4; [5]): induced both NRF2 and GPX4 levels
- effect on ferroptosis induced by olaparib+RSL3 combination ([2]; SUM149 cells): suppressed
- effect on RSL3-induced ferroptosis [1, 5]: rendered these cells resistant to RSL3-induced ferroptosis
